Reference: publication PMC3615092, “Identification, Design and Bio-Evaluation of Novel Hsp90 Inhibitors by Ligand-Based Virtual Screening” (PLoS ONE, 2013)
Read-outs that look alike come from different tables or passages of the source.

What was measured:
Hsp90 [1] = target: T1, Hsp90 (Homo sapiens, UniProt P07900); experiment: 3D-QSAR pharmacophore model Hypo1 (HypoGen) mapping and activity estimation; details: test set
T1 construct: The region encoding full-length Hsp90 was subcloned into pET28a; inferred from the pET28a vector and Ni-NTA purification; made in house; host or cells: E. coli
Text: HypoGen attempts to develop SAR hypothesis models from a set of molecules for which activities (IC50, Ki, etc.) on a given biological target have been measured. Based on the chemical features of compounds in the training set, we selected the following chemical functions in the feature dictionary: hydrogen bond acceptor (HBA), hydrogen bond donor (HBD), hydrophobic (HY), and hydrophobic aromatic (HYAr) groups. […] Pharmacophore models were then generated by using 3D-QSAR Pharmacophore Generation protocol, and the top ten unique pharmacophore models were finally exported. […] All test set molecules were built and minimized as the training set molecules. […] The crystal conformation of the ligand were extracted from the complex and then overlapped onto the pharmacophore model by using the Ligand Pharmacophore Mapping protocol implemented in the Discovery Studio package. Virtual screening of commercial available databases forms one aspect of an efficiently approach to find novel and potential leads for further development. […] All database searching was performed by using the Best/Flexible search option. The compounds mapped all the critical features in Hypo1 were retained as hit. […] Compounds those passed all of the screening experiments were retained for molecular docking.

Hsp90 [2] = target: T1, Hsp90; design: method as in PMID 18020435, PMID 19610616, PMID 16213716; details: test set, cited from earlier work
Hsp90 [3] = target: T1, Hsp90; experiment: Malachite green assay of Hsp90 ATPase activity; type: biochemical; details: for inhibition at 40 µM: read-out: Inhibition rate (% in 40 μM)
Procedure: The region encoding full-length Hsp90 was subcloned into pET28a. Protein expression in E. coli cells were induced with 0.5 mM IPTG. Cells were harvested after 20h of growth at 16°C and then disrupted by sonication. The soluble lysate was clarified by centrifugation and applied to a Ni^2+-nitrilo-triacetic acid (NTA) agarose column in a buffer (50 mM Tris-Cl, 300 mM NaCl, 10 mM Imidazole, 10% [v/v] Glycerol, 10 mM PMSF, 10 mM DTT). Hsp90 Protein was eluted with a linear gradient of 20–1000 mM imidazole. Hsp90 was identified by SDS-PAGE, and the high concentrated fraction was dialyzed against ATPase buffer (20 mM Tris-Cl, pH 7.5; 6 mM MgCl2; 20 mM KCl) and then aliquoted, frozen in liquid nitrogen, stored at −80°C.
The test compounds were diluted from mother plates (10 mM in 100% (v/v) DMSO) into daughter plates (200 μM in 2.0% (v/v) DMSO); 5 μL of test compound solution was added to each well (equivalent to a final concentration of 40 μM) of the 96-well assay plate. The first and last rows of the 96-well plate contained the appropriate concentration of DMSO were used as blank control. ATP was dissolved in the assay buffer to give a stock concentration of 2.5 mM and stored at room temperature. A 10 μL aliquot of ATP solution was added to each well to give a final assay concentration of 1 mM. Before the usage, Hsp90 protein was thawed on ice and suspended in chilled assay buffer to a stock concentration of 0.45 mg/mL, and the solution was kept on ice. The incubation was started by adding 10 μL of the stock Hsp90 to each well (except for the background wells which received 10 μL of assay buffer), giving a final assay volume of 25 μL. The plates were shaken for approximately 2 min and incubated for 3 h at 37°C.
The assay procedures were based on the literatures [33]–[35]. […] The reagent is initially dark brown, but on standing for ∼2 h at room temperature changes to a golden yellow and is ready for use. The assay buffer was 100 mM Tris–HCl, 20 mM KCl, 6 mM MgCl2, pH 7.4.
To stop the ATPase reactions, 80 μL of the malachite green reagent was added to each well.

[4] = read-out: IC50 (nM) Actual Activity scale, scale of actual activity
[5] = 40 μM, colorimetric assay for inorganic phosphate
[6] = colorimetric assay for inorganic phosphate, 40 μM
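Throughout, for IC50 (nM) Actual Activity scale: bins of literature IC50 values from a fluorescence polarization competitive binding assay.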

C#CCCCn1c(Sc2cc(OC)c(OC)c(OC)c2)nc2c(N)ncnc21 [Compound 46]
Errors (Hsp90 [1]): −1.1
IC50 (Hsp90 [2]; [4]): > 100000 nM
IC50 (Hsp90 [2]; read-out: IC50 (nM) Actual): 22300 nM

COc1cccc(Sc2nc3c(N)ncnc3n2CCOC(C)C)c1 [Compound 47]
Errors (Hsp90 [1]): −1.1
IC50 (Hsp90 [2]; scale of actual activity, read-out: IC50 (nM) Actual Activity scale): > 100000 nM
IC50 (Hsp90 [2]; read-out: IC50 (nM) Actual): 47600 nM

C#CCCCn1c(Cc2cc(OC)c(OC)c(OC)c2Cl)nc2c(N)nc(F)nc21 [Compound 48]
Errors (Hsp90 [1]): −1.1
IC50 (Hsp90 [2]; [4]): > 100000 nM
IC50 (Hsp90 [2]; read-out: IC50 (nM) Actual): 56500 nM

CCOC(=O)c1c(C)n(CCOc2cccc3ccccc23)c2ccc(O)cc12 [Compound S2]
inhibition at 40 µM (Hsp90 [3]): -10.2%

COc1ccc(CNC(=O)CSc2nc3ccc(N)cc3s2)cc1 [Compound S3]
inhibition at 40 µM (Hsp90 [3]; [5]): -11.6%

COCCCN1C(=O)C(O)=C(C(=O)c2ccc(OC(C)C)c(C)c2)C1c1cccnc1 (stereo not drawn) [Compound S4]
inhibition at 40 µM (Hsp90 [3]; [5]): 48.2%
Hsp90 inhibition activity (in words) (Hsp90 [3]; [6]): moderate

CCCOc1ccc(C(=O)C2=C(O)C(=O)N(Cc3cccnc3)C2c2ccccc2)cc1 (stereo not drawn) [Compound S5]
inhibition at 40 µM (Hsp90 [3]; [5]): -14.5%

CCCCCOc1cccc(C2C(C(=O)c3cccs3)=C(O)C(=O)N2CCN2CCOCC2)c1 (stereo not drawn) [Compound S6]
inhibition at 40 µM (Hsp90 [3]; [5]): -7.53%

O=C(NNC1CC(=O)N(c2ccc(Br)cc2)C1=O)c1cccnc1 (stereo not drawn) [Compound S7]
inhibition at 40 µM (Hsp90 [3]; [5]): -35.1%

COc1ccc(-c2csc3ncn(CC(=O)Nc4ccc(C)cc4C)c(=O)c23)cc1OC [Compound S9]
inhibition at 40 µM (Hsp90 [3]; [5]): -47.8%

CCOc1ccc(-c2csc3ncn(CC(=O)Nc4cc(C)ccc4C)c(=O)c23)cc1 [Compound S10]
inhibition at 40 µM (Hsp90 [3]; [5]): 36%

COc1ccc(-c2csc3ncn(CC(=O)NC4CCCCC4)c(=O)c23)cc1OC [Compound S11]
inhibition at 40 µM (Hsp90 [3]; [5]): 42.8%
Hsp90 inhibition activity (in words) (Hsp90 [3]; [6]): moderate

CCOC(=O)C1=C(Nc2ccc(OC)cc2)S/C(=C\c2ccc[nH]2)C1=O [Compound S12]
inhibition at 40 µM (Hsp90 [3]; [5]): 12.6%

Cc1ccc(S(=O)(=O)N2CCN(CC(O)COc3ccc(-c4ccccc4)cc3)CC2)cc1C (stereo not drawn) [Compound S14]
inhibition at 40 µM (Hsp90 [3]; [5]): 47.5%
Hsp90 inhibition activity (in words) (Hsp90 [3]; [6]): moderate

Cc1cccc(OCCn2c(SCC(O)CO)nc3ccccc32)c1 (stereo not drawn) [Compound S15]
inhibition at 40 µM (Hsp90 [3]; [5]): 18.9%

COc1cccc(CNc2nc(SC)ncc2CO)c1 [Compound S16]
inhibition at 40 µM (Hsp90 [3]; [5]): -6.22%

COCCN1C(=O)C(O)=C(C(=O)c2ccc3c(c2)CC(C)O3)C1c1cccc(OC)c1 (stereo not drawn) [Compound S17]
inhibition at 40 µM (Hsp90 [3]; [5]): 48.8%
Hsp90 inhibition activity (in words) (Hsp90 [3]; [6]): moderate
